Measurements from ChEMBL document CHEMBL2331447, “Nocardiamides A and B, two cyclohexapeptides from the marine-derived actinomycete Nocardiopsis sp. CNX037” (J Nat Prod, 2013).
Calls of active or inactive are those of the source.

What was measured:
Type in all cases: functional, organism-based
Escherichia coli = assay: Antimicrobial activity against Escherichia coli ATCC 25922 assessed as inhibition of visible growth measured after 16 to 20 hrs by broth microdilution method
Enterococcus faecalis = assay: Antimicrobial activity against Enterococcus faecalis ATCC 29212 assessed as inhibition of visible growth measured after 16 to 20 hrs by broth microdilution method
Micrococcus luteus = assay: Antimicrobial activity against Micrococcus luteus SCSIO ML01 assessed as inhibition of visible growth measured after 16 to 20 hrs by broth microdilution method
Staphylococcus aureus = assay: Antimicrobial activity against Staphylococcus aureus ATCC 29213 assessed as inhibition of visible growth measured after 16 to 20 hrs by broth microdilution method
Bacillus subtilis = assay: Antimicrobial activity against Bacillus subtilis SCSIO BS01 assessed as inhibition of visible growth measured after 16 to 20 hrs by broth microdilution method
Bacillus thuringiensis = assay: Antimicrobial activity against Bacillus thuringiensis SCSIO BT01 assessed as inhibition of visible growth measured after 16 to 20 hrs by broth microdilution method
Candida albicans = assay: Antimicrobial activity against Candida albicans ATCC 10231 assessed as inhibition of visible growth measured after 16 to 20 hrs by broth microdilution method

Measured: Activity

CC[C@H](C)[C@H](NC(=O)[C@@H](CC(C)C)NC(=O)[C@H](NC(=O)[C@@H](NC(=O)[C@H](N)C(C)C)C(C)C)C(C)C)C(=O)N[C@@H](Cc1ccc(O)cc1)C(=O)O
inactive: all assays above

CC(C)C[C@@H](NC(=O)[C@H](NC(=O)[C@@H](NC(=O)[C@H](N)C(C)C)C(C)C)C(C)C)C(=O)N[C@H](C(=O)N[C@@H](Cc1ccc(O)cc1)C(=O)O)C(C)C
inactive: all assays above

CC(C)C[C@H]1NC(=O)[C@@H](C(C)C)NC(=O)[C@H](C(C)C)NC(=O)[C@@H](C(C)C)NC(=O)[C@H](Cc2ccc(O)cc2)NC(=O)[C@H](C(C)C)NC1=O
inactive: all assays above

CC[C@H](C)[C@@H]1NC(=O)[C@@H](CC(C)C)NC(=O)[C@@H](C(C)C)NC(=O)[C@H](C(C)C)NC(=O)[C@@H](C(C)C)NC(=O)[C@H](Cc2ccc(O)cc2)NC1=O
inactive: all assays above
